≈ marks a conversion by molar mass, not a printed value. Where two headings read alike, the source gives them in different places.
Experiments:
[1] = biological target: T1, phenylalanine hydroxylase (Rattus norvegicus, UniProt P04176); experiment: Inhibition of phenylalanine hydroxylase by dihydropterins; format: biochemical; conditions: concentrations up to 0.4 mM; 6,6-Me2PH4 as cofactor 0.05-0.3 mM
T1 construct: from tissue
T1 sequence (P04176 1-453): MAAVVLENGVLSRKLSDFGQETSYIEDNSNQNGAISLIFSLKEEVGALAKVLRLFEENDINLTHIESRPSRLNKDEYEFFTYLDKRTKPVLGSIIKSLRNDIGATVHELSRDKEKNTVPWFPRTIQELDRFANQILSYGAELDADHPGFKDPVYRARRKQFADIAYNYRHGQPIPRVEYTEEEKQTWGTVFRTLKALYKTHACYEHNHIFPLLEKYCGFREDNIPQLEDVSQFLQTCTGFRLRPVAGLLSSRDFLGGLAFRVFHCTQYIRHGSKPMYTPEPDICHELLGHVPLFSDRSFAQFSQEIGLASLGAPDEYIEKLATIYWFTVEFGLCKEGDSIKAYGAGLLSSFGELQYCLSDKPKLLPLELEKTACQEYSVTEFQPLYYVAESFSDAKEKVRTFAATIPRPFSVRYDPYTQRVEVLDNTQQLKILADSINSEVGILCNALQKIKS
Experimental: Measurements were made under standard assay conditions with cofactor concentration varied between 0.05 and 0.3 mM. Stock solutions of 6,6-Me₂PH₂ were in 0.1 M assay buffer.
Standard assay conditions, with 6-MePH₄ as cofactor over a range of 0.05 mM to 0.3 mM, were employed.

[2] = Non-enzymatic reduction of quinoid-6,6-Me2PH2 by physiological reducing agents; format: physicochemical; conditions: 0.1 M Tris·HCl, pH 7.4 at 37°
Experimental: Non-Enzymatic Reduction of Quinoid-6,6-Me₂PH₂ under Physiological Conditions. Aromatic amino acid hydroxylase cofactor analogs which are relatively stable in the quinoid-dihydro form may have therapeutic potential for treatment of dihydropteridine reductase deficiency. Thus, it was of interest to determine the rate at which quinoid is reduced to the tetrahydropterin by various physiological reducing agents. Rates were measured in 0.1 M Tris·HCl, pH 7.4 at 37°, from the decrease in absorbance at 340 nm. A reaction first order in each component was observed. With NADH, NADPH and absorbic acid, the rate of reduction (k=660 M⁻¹min⁻¹) was the same. The rate with cysteine was about four times slower (k=160 M⁻¹min⁻¹).

[3] = biological target: T2, Beef Liver Dihydropteridine Reductase (Bos taurus, UniProt Q3T0Z7); experiment: Quinoid dihydropterin as substrate for dihydropteridine reductase (beef liver); format: biochemical
T2 construct: from tissue; host or cells: beef liver
T2 sequence (Q3T0Z7 1-242): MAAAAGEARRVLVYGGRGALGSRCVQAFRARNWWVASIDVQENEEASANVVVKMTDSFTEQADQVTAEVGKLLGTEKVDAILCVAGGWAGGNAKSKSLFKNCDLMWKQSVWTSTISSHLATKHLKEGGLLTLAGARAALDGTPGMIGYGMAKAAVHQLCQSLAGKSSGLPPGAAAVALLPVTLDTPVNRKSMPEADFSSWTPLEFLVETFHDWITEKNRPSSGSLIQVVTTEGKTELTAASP
Experimental: (§1) The quinoid was generated from 6,6-Me₂PH₄, as outlined previously. […] Peroxidase (6 units/ml final volume) was temperature equilibrated in 0.1 M Tris·HCl, pH 7.4, at 27° for 5 minutes. H₂O₂ (1.2 mM final concentration) was then added, followed by 6,6-Me₂PH₄. […] At 5 minutes, 6,6-Me₂PH₄ was introduced and monitored at 340 nm. […] Reaction was then initiated with dihydropteridine reductase (0.01 units/ml). Rates were calculated from the enzyme dependent decrease in O.D. at 340 nm, using an extinction coefficient of 9.8 for the chemically synthesized substrate and 6.2 for the peroxidase- and phenylalanine-hydroxylase-containing reactions in which the pterin is maintained in the quinoid form.

[4] = biological target: T3, Sheep Liver Dihydropteridine Reductase (Ovis aries, UniProt A0ACI6QPJ5); experiment: Quinoid dihydropterin as substrate for dihydropteridine reductase (sheep liver); format: biochemical
T3 sequence (A0ACI6QPJ5 46-254): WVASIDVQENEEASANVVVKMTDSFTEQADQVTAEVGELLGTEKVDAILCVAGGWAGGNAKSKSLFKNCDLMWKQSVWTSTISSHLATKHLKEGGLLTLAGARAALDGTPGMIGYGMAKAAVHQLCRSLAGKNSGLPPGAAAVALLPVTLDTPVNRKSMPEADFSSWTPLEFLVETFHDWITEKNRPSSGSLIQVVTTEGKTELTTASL
Experimental: as §1, with “6,6-Me₂PH₄. Conversion to q-6,6-Me₂PH₂, monitored at 340 nm, was complete within a few seconds. • (iii) Generation by phenylalanine hydroxylase:” for “6,6-Me₂PH₄.”, “nm. Conversion of 6,6-Me₂PH₄ to quinoid dihydropterin was complete in 1-7 minutes, depending on the concentration.” for “nm.”, “form. […] This Km was obtained regardless of the method of generation of the quinoid dihydropterin. The Vmax's were also the same for the dihydropteridine reductase catalyzed reduction of quinoid generated by any of the three methods (Table VI). Thus, the quinoid products of each procedure appear to behave equally.” for “form.”

[5] = Stability (decay) of quinoid-6,6-Me2PH2 monitored spectrophotometrically; format: physicochemical
Experimental: Stability. The decay of q-6,6-Me₂PH₂ in a variety of environments was monitored spectrophotometrically. […] In water, a plateau of highest stability is observed near neutral pH. At pH 6.8, solutions kept on ice have a half-life greater than 100 hours. […] Loss of quinoid is somewhat increased in acid and greatly accelerated in base. […] This process is not affected by the presence of oxygen.

[6] = Spectrophotometric pKa determination of quinoid dihydropterin; format: physicochemical; conditions: sodium succinate buffer; transition between neutral and monocationic species; sodium succinate buffers, I=0.01, 25°C
Experimental: pKa. The pKa for the transition between the neutral and monocationic species of q-6,6-Me₂PH₂ was determined spectrophotometrically. A concentrated stock solution of quinoid, free of elemental bromine, in n-propanol was diluted to 0.1 mM into a series of sodium succinate buffers at constant ionic strength (I=0.01). Spectra, background corrected for each buffer individually, were acquired on a Perkin-Elmer 552 spectrophotometer thermostated to 25°C.

[7] = tested on: striatal tyrosine hydroxylase; conditions: cited from earlier work
[8] = tested on: phenylalanine hydroxylase; conditions: cited from earlier work
[9] = Near-saturation concentration at neutral pH; format: physicochemical; conditions: organic solvent or mixture, in 0.5 M 2-mercaptoethanol, room temperature, read-out: concentration of an almost saturated solution
Experimental: 2-Amino-4-hydroxy-6-methyl-6-phenyl-5,6,7,8-tetrahydropteridine ([…]): The above dry quinoid-dihydropteridine was reduced in near quantitative yield by addition of 0.5 M 2-mercaptoethanol at room temperature, such that the final concentration of product was approximately 10 mM (an almost saturated solution at neutral pH). To obtain the pure dihydrochloride salt, this solution was rotary evaporated to an oil which was dissolved in 2M HCl in methanol and 4 volumes of ethyl ether added, and the precipitate collected by centrifugation and washed twice by resuspension in fresh ethyl ether, followed by centrifugation.

[10] = substrate produced by Bromine oxidation
[11] = substrate produced by Phe hydroxylase + phe

## CC1(C)CNC2=NC(N)=NC(=O)C2=N1 [Quinoid-6,6-Me2PH2, 2-Amino-6,6-dimethyl-4-hydroxyquinoid-dihydropteridine]
[1]
  inhibition of purified phenylalanine hydroxylase: No inhibition
[2]; with NADH
  rate of reduction (k): 11 M⁻¹ s⁻¹
[2]; with NADPH
  rate of reduction (k): 11 M⁻¹ s⁻¹
[2]; with absorbic acid
  rate of reduction (k): 11 M⁻¹ s⁻¹
[2]; with cysteine
  rate of reduction (k): 2.67 M⁻¹ s⁻¹
[3]; [10]
  Relative Vmax Beef: 1
[3]; substrate produced by Peroxidase + H2O2
  Relative Vmax Beef: 1
[3]; [11]
  Relative Vmax Beef: 1
[4]; [10]
  Relative Vmax Sheep: 1
[4]; [11]
  Relative Vmax Sheep: 1
[5]
  stability relative to the quinoid forms of 6-methyldihydropterin or dihydrobiopterin: one to two orders of magnitude more stable
[5]; 0.1 m tris-hcl, air, pH 7.4, pH 7.4 (0.1 M Tris·HCl), 27°C, air, read-out: t 1/2 (converted)
  half-life: 4 h
[5]; 0.1 m tris-hcl, air, pH 7.4, pH 7.4 (0.1 M Tris·HCl), 37°C, air, read-out: t 1/2 (converted)
  half-life: 1.25 h
[5]; 0.1 m tris-hcl, argon, pH 7.4, pH 7.4 (0.1 M Tris·HCl), 37°C, argon, read-out: t 1/2 (converted)
  half-life: 1.25 h
[5]; 1n hcl, air, pH 0, pH 0 (1N HCl), 37°C, air, read-out: t 1/2 (converted)
  half-life: 0.75 h
[5]; 1n hcl, argon, pH 0, pH 0 (1N HCl), 37°C, argon, read-out: t 1/2 (converted)
  half-life: 0.75 h
[5]; aerated (CH3)2SO at -80°C
  half-life: several weeks
[5]; dmso, aerated (CH3)2SO at ambient temperature, read-out: half-life (converted)
  half-life: ~48 h
[5]; in contrast to quinoid dihydropterin monosubstituted at C6
  rearrangement to a 7,8-dihydropterin: does not appear to rearrange to a 7,8-dihydropterin
[5]; pH 6.8 (Tris-MES 0.1M), 0°C (on ice), air
  t 1/2: 104 h
[5]; stored desiccated for several months at -80°C
  storage stability of the dry powder: no detectable change
[5]; tris-mes 0.1 m, air, pH 6.8, pH 6.8 (Tris-MES 0.1M), 0°C (on ice), air, read-out: t 1/2 (converted)
  half-life: > 100 h
[6]
  pKa: 5.15 ± 0.05

## Nc1nc2c(c(=O)[nH]1)NC(c1ccccc1)CN2 (centres unmarked) [Compound 6-Phenyl-PH4, 6-phenyltetrahydropterin]
[7]
  increase of Vmax compared to tetrahydrobiopterin: 10 fold
[8]
  decrease of Vmax compared to tetrahydrobiopterin: 10 fold

## CC1(c2ccccc2)CNc2nc(N)nc(O)c2N1 (centres unmarked) [6-Phenyl-6-Methyl-PH4, 2-Amino-4-hydroxy-6-methyl-6-phenyl-5,6,7,8-tetrahydropteridine]
[9]
  solubility: ~10 mM (≈ 2570 µg/mL)
